Measurements as given in PubChem BioAssay (NCI).
“And” between values parts separate entries of the source, which are not always exact repeats. Equal values may be shown once.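 The compound was tested at five concentrations on cells cultured in 96-well plates, with a 48-hour exposure period. Here, GI50 denotes the concentration required for 50% inhibition of growth. TGI: concentration producing complete growth inhibition.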

Experiments:
Assay in all cases: NCI tumour cell line growth inhibition, 48 h
ACHN renal = test system: ACHN renal
MALME-3M melanoma = test system: MALME-3M melanoma
SF-295 CNS = test system: SF-295 CNS
SK-MEL-2 melanoma = test system: SK-MEL-2 melanoma
SK-OV-3 ovarian = test system: SK-OV-3 ovarian
SW-620 colon = test system: SW-620 colon
UACC-257 melanoma = test system: UACC-257 melanoma
BT-549 breast = test system: BT-549 breast
MCF7 breast = test system: MCF7 breast
T-47D breast = test system: T-47D breast

| Compound | TGI (ACHN renal) [µM] | TGI (MALME-3M melanoma) [µM] | TGI (SF-295 CNS) [µM] | TGI (SK-MEL-2 melanoma) [µM] | TGI (SK-OV-3 ovarian) [µM] | TGI (SW-620 colon) | TGI (UACC-257 melanoma) [µM] | TGI (BT-549 breast) [µM] | TGI (MCF7 breast) [µM] | TGI (T-47D breast) [µM] | GI50 (MCF7 breast) [µM] | GI50 (SF-295 CNS) [µM] |
| --- | --- | --- | --- | --- | --- | --- | --- | --- | --- | --- | --- | --- |
| NCc1cccc(O)c1O | > 100 | > 100 | > 100 | > 100 | > 100 | > 100 µM | > 100 | – | – | – | – | – |
| CC(C)(C)n1c(=O)[nH]c(=O)n1C(C)(C)C | > 100 | > 100 | > 100 | > 100 | > 100 | > 100 µM | > 100 | > 100 | > 100 | – | – | – |
| c1ccc(/C(=N/Nc2ccncn2)c2ccccn2)cc1 | 88.1 | – | 64.9 | > 100 | 75.7 | > 100 µM | > 100 | > 100 | > 100 | – | – | – |
| Cc1ccc(S(=O)(=O)Nn2c(O)c(C#N)c(-c3ccc(Cl)cc3)c(C#N)c2=O)cc1 | > 100 | > 100 | > 100 | > 100 | > 100 | > 100 µM | > 100 | > 100 | > 100 | – | – | – |
| C=CC[n+]1c2ccccc2n2cc([N+](=O)[O-])ccc21 | > 100 | 30.2 | > 100 | 95.8 | > 100 | > 100 µM | 44.6 | – | 79.8 | > 100 | – | – |
| CC1(C)CC(=O)C2(CC(CSc3ccccc3)C(CS(=O)(=O)c3ccccc3)C2)C(=O)C1 (stereo unspecified) | > 100 | – | > 100 | > 100 | > 100 | > 100 µM | > 100 | > 100 | > 100 | > 100 | – | – |
| COc1ccc(OC)c(SC(CC(=O)c2ccccc2)c2ccccc2)c1 (stereo unspecified) | 39 | 38.5 | 31.6 | 36.1 | 40.3 | 12.2 µM | 30.7 | – | 13.7 | 35.8 | – | – |
| O=c1c(-c2ccccc2)c(SCCO)n(-c2ccccc2)c(=S)n1-c1ccccc1 | > 100 | > 100 | > 100 | > 100 | > 100 | > 100 µM | > 100 | > 100 | > 100 | – | – | – |
| C/C(=N\Nc1nc2cc(C(F)(F)F)ccc2s1)c1ccccn1 | 5.84 | 8.9 | 5.19 | 4.69 | 11.3 | 7.65 µM | > 31.2 | > 40.1 | – | 15.4 | – | – |
| O=c1oc(C(C(F)(F)F)C(F)(F)F)nc2ccccc12 | > 100 | > 100 | > 100 | > 100 | > 100 | > 100 µM | > 100 | – | > 100 | – | – | – |
| CC1=NN(C(=O)c2ccc(Cl)cc2)C(=O)/C1=C/c1ccccc1O | > 100 | > 100 | > 100 | > 100 | > 100 | > 100 µM | > 100 | – | – | – | – | – |
| COC[C@@H](N=Cc1ccc([N+](=O)[O-])cc1)C(C)C | > 100 | > 100 | > 100 | > 100 | > 100 | > 100 µM | > 100 | – | > 100 | – | – | – |
| COc1ccc(/C(Cl)=C/c2cc(OC)ccc2OC)cc1 | > 100 | > 100 | > 100 | – | > 100 | > 100 µM | > 100 | – | – | – | – | – |
| COc1ccc(-c2oc3cc(O)cc(O)c3c(=O)c2OC)cc1 | > 100 | > 100 | > 100 | – | > 100 | > 100 µM | > 100 | – | > 100 | > 100 | – | – |
| COc1cc2cc(C(=O)N3CC(COS(C)(=O)=O)c4ccc(O)cc43)[nH]c2c(OC)c1OC (stereo unspecified) | < 0.0001 | – | < 0.0001 | < 0.0001 | – | 0.111 µM and 0.0118 µM | 0.00404 | – | 0.0402 | 0.0416 | – | – |
| O=C(O)c1ccccc1N=Cc1ccc(N(CCCl)CCCl)cc1 | – | > 100 | > 100 | > 100 | > 100 | > 100 µM | > 100 | – | > 100 | – | – | – |
| CC(Oc1ccccc1Cl)C(=O)NN1C(=O)CSC1c1ccccc1 (stereo unspecified) | > 100 | – | > 100 | > 100 | > 100 | > 100 µM | > 100 | > 100 | > 100 | > 100 | – | – |
| c1ccc2c(c1)SCCCSCCSCCCS2 | – | – | > 100 | – | > 100 | > 100 µM | > 100 | > 100 | > 100 | > 100 | – | – |
| Cc1cc(OC(=O)NCn2cc(-c3ccccc3)nn2)ccc1Cl | > 100 | > 100 | > 100 | > 100 | – | > 100 µM | > 100 | > 100 | > 100 | – | – | – |

| Compound | TGI (ACHN renal) [µM] | TGI (MALME-3M melanoma) [µM] | TGI (SF-295 CNS) [µM] | TGI (SK-MEL-2 melanoma) [µM] | TGI (SK-OV-3 ovarian) [µM] | TGI (SW-620 colon) | TGI (UACC-257 melanoma) [µM] | TGI (BT-549 breast) [µM] | TGI (MCF7 breast) [µM] | TGI (T-47D breast) [µM] | GI50 (MCF7 breast) [µM] | GI50 (SF-295 CNS) [µM] |
| --- | --- | --- | --- | --- | --- | --- | --- | --- | --- | --- | --- | --- |
| Cc1cc2c([nH]c3ccccc32)c(O)c1-c1c(C)cc2c([nH]c3ccccc32)c1O | 27.3 | – | 33.4 | 30.6 | – | 50.8 µM | 30.9 | 33.6 | 25 | 31.3 | 11.2 | 17.4 |
| O=c1[nH]n(Cc2ccccc2)c2ccc([N+](=O)[O-])cc12 | > 100 | > 100 | > 100 | > 100 | > 100 | > 100 µM | > 100 | – | > 100 | – | – | – |
| COc1ccc(C(=O)CC(c2ccccc2)[C@H]2C(c3ccc(OC)cc3)=Nc3c(nc(SC)n(C)c3=O)NC2c2ccccc2)cc1 (stereo partly specified) | – | – | > 100 | > 100 | > 100 | > 100 µM | > 100 | > 100 | > 100 | > 100 | – | – |
| O=C1NC(=O)C(C(CC(=O)c2ccc(Cl)cc2)c2ccc(Cl)cc2)C(=O)N1 (stereo unspecified) | > 100 | 7.63 | > 100 | > 100 | – | > 100 µM | > 100 | > 100 | 44.2 | – | – | – |
| C/C(=N\Nc1nc2ccccc2n1C)c1cc2ccccc2cn1 | 11.8 | 3.03 | 5.39 | – | 0.761 | 11.3 µM | 7.26 | 13.8 | – | 5.66 | – | – |
| CN(C)Cc1cc(C(=O)/C=C/c2ccccc2)cc(CN(C)C)c1O | > 100 | 44.9 | 39.6 | – | – | 45.1 µM | 27.9 | 42.7 | > 100 | > 100 | – | – |
| CN=C(/N=c1\ssc(=NC)n1C)N(C)C | > 100 | – | > 100 | – | > 100 | > 100 µM | > 100 | – | – | – | – | – |
| O=C1C=CC(=O)c2c(O)c(NCCOCCO)c(Cl)c(O)c21 | 28.7 | 8.43 | 24.1 | 21.7 | 31.1 | 11 µM | 8.34 | – | – | – | – | – |
| CCc1cc2c(c3c1CCCC3=O)CC1(Cc3ccc(C(=O)OC)cc3C1)C2 (stereo unspecified) | > 100 | > 100 | > 100 | > 100 | > 100 | > 100 µM | > 100 | – | > 100 | > 100 | – | – |
| Cn1c(-c2ccc(/C=N/NC(=S)N/N=C/c3ccc(-c4c[n+]5ccsc5n4C)cc3)cc2)c[n+]2ccsc12 | > 100 | – | > 100 | – | > 100 | > 100 µM | > 100 | – | > 100 | > 100 | – | – |
| Cc1ccccc1-c1nc2c(C(=O)NCCN(C)C)cccc2[nH]1 | – | > 62.2 | > 100 | > 100 | > 100 | > 100 µM | > 100 | – | > 100 | – | – | – |
| O=C(Nc1ccccc1C(=O)NCc1ccccc1)/C(=C/c1ccccc1)NC(=O)c1ccccc1 | > 100 | – | > 100 | > 100 | > 100 | > 100 µM | > 100 | > 100 | > 100 | > 100 | – | – |
| CC(C)/C(Cl)=N\OC(NC(=O)P(=O)(c1ccccc1)c1ccccc1)(C(F)(F)F)C(F)(F)F | 16.3 | 20.9 | 79.5 | – | > 100 | 53.9 µM | 42.2 | – | 34 | > 100 | – | – |
| Cn1c(=O)oc2nc(-c3ccccc3)cc(C(F)(F)F)c21 | > 100 | – | > 100 | > 100 | > 100 | > 100 µM | > 100 | > 100 | > 100 | > 100 | – | – |
| Cc1c(C(=O)OCc2ccccc2)[n+](=O)c2cc(Cl)c(Cl)cc2n1[O-] | 53.7 | – | 37.4 | 38.6 | 60 | – | 29.6 | 44.4 | 54.4 | 23.6 | – | – |
| COc1ccc(Nc2ccc3ccccc3c2-c2c(O)ccc3ccccc23)cc1 | 29.8 | – | 34.6 | 28.3 | – | 28.2 µM | 58.9 | 52 | 25.6 | 34 | – | – |
| COc1cccc(N[C@@H]2c3cc4c(cc3C(c3cc(OC)c(O)c(OC)c3)[C@H]3C(=O)OCC32)OCO4)c1 (stereo partly specified) | – | 20.7 | 2.5 | 11.2 | 17.9 | > 43.2 µM | 34.3 | – | 14.4 | – | – | – |
| COC(=O)C1C(=O)N(C)C(=O)N2CCCC12 (stereo unspecified) | > 100 | > 100 | > 100 | > 100 | > 100 | > 100 µM | > 100 | – | > 100 | > 100 | – | – |
